Assay results taken from US12577216B2, “Triazine benzoate compound and application thereof” (SHENYANG SINOCHEM AGROCHEMICALS R&D CO., LTD., priority 2020, dated 2026).

Key:
Type in all cases: in vivo
green bristlegrass = assay: Determination of herbicidal activity, post-emergence stem and leaf spray, green bristlegrass; conditions: for Herbicidal activity for Green Bristlegrass, control effect %: Table 5 parallel comparison
Method: (§1) Seeds of broadleaf weeds (zinnia and piemarker) or grassy weeds (green bristlegrass and barnyard grass) were respectively sown in a paper cup having a diameter of 7 cm and containing nutrient soil; after sowing, the seeds were covered with 1 cm of soil; the soil was pressed and watered, and then the seeds were cultivated in a greenhouse according to a conventional method; and stems and leaves were sprayed after 2-3 leaf stage of the weeds.
(§2) After the original medicinal acetone was dissolved, the test requires to use 1‰ of Tween 80 to stand in running water to prepare the solution to be tested with a required concentration. According to the design dose of the test, spray treatment was carried out on a track-type crop sprayer (designed and produced by British Engineer Research Ltd.) (spray pressure is 1.95 kg/cm^2, spray volume is 500 L/hm^2 and track speed is 1.48 km/h). The test was repeated for three times. The test material was treated and then placed in an operation hall. The medicinal liquid was naturally dried in the shade, and then was placed in a greenhouse and managed according to the conventional method. The response of the weeds to the drug was observed and recorded. After treatment, the control effects of the test drug on the weeds were visually inspected regularly, expressed by 0-100%. “0” represents no control effect and “100%” represents complete killing.

piemarker = assay: Determination of herbicidal activity, post-emergence stem and leaf spray, piemarker; conditions: for control effects on piemarker / pest or weed control at 150 g/ha: 150 g a.i./hm^2, after emergence, visual 0-100%; for Herbicidal activity for Piemarker, control effect %: Table 4 parallel comparison; for pest or weed control at 150 g/ha: post-emergence, read-out: control effects on piemarker
Method: as §1, §2

zinnia = assay: Determination of herbicidal activity, post-emergence stem and leaf spray, zinnia; conditions: for control effects on zinnia: 150 g a.i./hm^2, after emergence, visual 0-100%; for Herbicidal activity for Zinnia, control effect %: Table 3 parallel comparison
Method: as §1, §2

barnyard grass = assay: Determination of herbicidal activity, post-emergence stem and leaf spray, barnyard grass; conditions: for Herbicidal activity for Barnyard Grass, control effect %: Table 6 parallel comparison
Method: as §1, §2

[1] = 9.375 g a.i./hm^2, after emergence
[2] = 37.5 g a.i./hm^2, after emergence
[3] = 2.34 g a.i./hm^2, after emergence
[4] = Table 2, 9.375 g a.i./hm^2, after emergence
[5] = Table 2, 37.5 g a.i./hm^2, after emergence

Structure (SMILES): Cn1c(=S)n(C)c(=O)n(-c2cc(C(=O)OCC(=O)OCC3COC(C)(C)O3)c(Cl)cc2F)c1=O (centres unmarked) [Compound 247]
- Herbicidal activity for Green Bristlegrass, control effect % (green bristlegrass; [1]): 60%
- Herbicidal activity for Green Bristlegrass, control effect % (green bristlegrass; [2]): 90%
- control effects on piemarker (piemarker): 100%
- control effects on zinnia (zinnia): 100%
- Herbicidal activity for Zinnia, control effect % (zinnia; [3]): 100%
- Herbicidal activity for Zinnia, control effect % (zinnia; [1]): 100%

Structure (SMILES): C=CCOC(=O)[C@@H](C)Oc1cc(-n2c(=O)n(C)c(=S)n(C)c2=O)c(F)cc1Cl [KC2, reference compound]
- Herbicidal activity for Green Bristlegrass, control effect % (green bristlegrass; [1]): 20%
- Herbicidal activity for Green Bristlegrass, control effect % (green bristlegrass; [2]): 50%
- Herbicidal activity for Barnyard Grass, control effect % (barnyard grass; [1]): 75%
- Herbicidal activity for Barnyard Grass, control effect % (barnyard grass; [2]): 90%

Structure (SMILES): Cn1c(=S)n(C)c(=O)n(-c2cc(C(=O)OCC(=O)OCC3CCCO3)c(Cl)cc2F)c1=O (centres unmarked) [Compound 246]
- Herbicidal activity for Green Bristlegrass, control effect % (green bristlegrass; [1]): 80%
- Herbicidal activity for Green Bristlegrass, control effect % (green bristlegrass; [2]): 90%
- Herbicidal activity for Barnyard Grass, control effect % (barnyard grass; [1]): 95%
- Herbicidal activity for Barnyard Grass, control effect % (barnyard grass; [2]): 98%
- control effects on piemarker (piemarker): 100%
- control effects on zinnia (zinnia): 100%
- Herbicidal activity for Zinnia, control effect % (zinnia; [3]): 95%
- Herbicidal activity for Zinnia, control effect % (zinnia; [1]): 95%

Structure (SMILES): Cn1c(=S)n(C)c(=O)n(-c2cc(C(=O)OCC(=O)OCCCCCl)c(Cl)cc2F)c1=O [Compound 225]
- Herbicidal activity for Green Bristlegrass, control effect % (green bristlegrass; [1]): 80%
- Herbicidal activity for Green Bristlegrass, control effect % (green bristlegrass; [2]): 90%
- Herbicidal activity for Barnyard Grass, control effect % (barnyard grass; [1]): 95%
- Herbicidal activity for Barnyard Grass, control effect % (barnyard grass; [2]): 100%
- control effects on piemarker (piemarker): 100%
- Herbicidal activity for Piemarker, control effect % (piemarker; [3]): 85%
- Herbicidal activity for Piemarker, control effect % (piemarker; [1]): 100%
- control effects on zinnia (zinnia): 100%
- Herbicidal activity for Zinnia, control effect % (zinnia; [3]): 95%
- Herbicidal activity for Zinnia, control effect % (zinnia; [1]): 100%

Structure (SMILES): Cn1c(=S)n(C)c(=O)n(-c2cc(C(=O)OCC(=O)OCCCCl)c(Cl)cc2F)c1=O [Compound 222, 2-chloro-4-fluoro-5-(3,5-dimethyl-2,6-dioxo-4-thio-1,3,5-triazine-1-yl)benzoic acid (3-chloropropoxycarbonyl) methyl ester]
- Herbicidal activity for Green Bristlegrass, control effect % (green bristlegrass; [1]): 60%
- Herbicidal activity for Green Bristlegrass, control effect % (green bristlegrass; [2]): 90%
- pest or weed control at 150 g/ha (piemarker): 100%
- control effects on zinnia (zinnia): 100%
- Herbicidal activity for Zinnia, control effect % (zinnia; [3]): 100%
- Herbicidal activity for Zinnia, control effect % (zinnia; [1]): 100%

Structure (SMILES): CCOC(=O)C(C)OC(=O)c1cc(-n2c(=O)n(C)c(=S)n(C)c2=O)c(F)cc1Cl (racemic) [Compound 248, 2-chloro-4-fluoro-5-(3,5-dimethyl-2,6-dioxo-4-thio-1,3,5-triazine-1-yl) benzoic acid (1-ethoxycarbonyl)ethyl ester]
- Green Bristlegrass, control effect % (green bristlegrass; [4]): 70%
- Green Bristlegrass, control effect % (green bristlegrass; [5]): 95%
- Herbicidal activity for Green Bristlegrass, control effect % (green bristlegrass; [1]): 60%
- Herbicidal activity for Green Bristlegrass, control effect % (green bristlegrass; [2]): 85%
- Barnyard Grass, control effect % (barnyard grass; [4]): 95%
- Barnyard Grass, control effect % (barnyard grass; [5]): 100%
- Herbicidal activity for Barnyard Grass, control effect % (barnyard grass; [1]): 90%
- Herbicidal activity for Barnyard Grass, control effect % (barnyard grass; [2]): 100%
- Piemarker, control effect % (piemarker; [4]): 90%
- Piemarker, control effect % (piemarker; [5]): 100%
- Herbicidal activity for Piemarker, control effect % (piemarker; [3]): 90%
- Herbicidal activity for Piemarker, control effect % (piemarker; [1]): 100%
- pest or weed control at 150 g/ha (piemarker): 100%
- control effects on zinnia (zinnia): 100%
- Zinnia, control effect % (zinnia; [4]): 60%
- Zinnia, control effect % (zinnia; [5]): 90%
- Herbicidal activity for Zinnia, control effect % (zinnia; [3]): 95%
- Herbicidal activity for Zinnia, control effect % (zinnia; [1]): 100%

Structure (SMILES): CC#CCOC(=O)C(C)OC(=O)c1cc(-n2c(=O)n(C)c(=S)n(C)c2=O)c(F)cc1Cl (centres unmarked) [Compound 287]
- Herbicidal activity for Green Bristlegrass, control effect % (green bristlegrass; [1]): 50%
- Herbicidal activity for Green Bristlegrass, control effect % (green bristlegrass; [2]): 70%
- control effects on piemarker (piemarker): 100%
- control effects on zinnia (zinnia): 100%
- Herbicidal activity for Zinnia, control effect % (zinnia; [3]): 80%
- Herbicidal activity for Zinnia, control effect % (zinnia; [1]): 100%

Structure (SMILES): Cn1c(=S)n(C)c(=O)n(-c2cc(C(=O)OCC(=O)OCC3CC3)c(Cl)cc2F)c1=O [Compound 241, 2-chloro-4-fluoro-5-(3,5-dimethyl-2,6-dioxo-4-thio-1,3,5-triazine-1-yl)benzoic acid (cyclopropylmethoxycarbonyl) methyl ester]
- Herbicidal activity for Green Bristlegrass, control effect % (green bristlegrass; [1]): 80%
- Herbicidal activity for Green Bristlegrass, control effect % (green bristlegrass; [2]): 100%
- Herbicidal activity for Barnyard Grass, control effect % (barnyard grass; [1]): 95%
- Herbicidal activity for Barnyard Grass, control effect % (barnyard grass; [2]): 98%
- Herbicidal activity for Piemarker, control effect % (piemarker; [3]): 98%
- Herbicidal activity for Piemarker, control effect % (piemarker; [1]): 100%
- pest or weed control at 150 g/ha (piemarker): 100%
- control effects on zinnia (zinnia): 100%
- Herbicidal activity for Zinnia, control effect % (zinnia; [3]): 100%
- Herbicidal activity for Zinnia, control effect % (zinnia; [1]): 100%
